Values after ≈ are worked out from the molar mass of the structure shown. “Also recorded” adds a separate entry of the source. One block for each compound: values may come before it.
Experiments:
[1] = Intrinsic dissolution rate in aqueous media, rotating disc method; type: physicochemical; settings: for dissolution rate: 37° C., 200 rpm
Protocol: The intrinsic dissolution rate was determined in aqueous media covering a range of pH 1.1-7.4 using the rotating disc method which maintains a constant surface area. 5 mg of drug substance was compressed to form a disc at 356.1 N for 60 s. These discs were mounted to specially designed sample holders which fit into a Sotax dissolution tester. The dissolution media (37° C.) were stirred at 200 rpm. Samples were automatically withdrawn every second minute from the dissolution vessel and assayed via UV spectrophotometry. The intrinsic dissolution rate expressed in μg/cm^2/min was calculated using the slope of the concentration versus time plot and from the linear portion of the slope of the dissolution curve, volume of dissolution medium (35 ml) and area (diameter: 2 mm) of the exposed disk.

human factor Xa = biological target: T1, human factor Xa (Homo sapiens, UniProt P00742); experiment: Inhibition of factor Xa, enzyme-kinetic measurement with chromogenic substrate; type: biochemical; settings: FXa assay; (S)-form versus (R)-form at the tetrahydrofuran carbon
T1 construct: released from the colourless chromogenic substrate by human factor Xa; purchased Calbiochem
T1 sequence (P00742 235-488 limits assumed): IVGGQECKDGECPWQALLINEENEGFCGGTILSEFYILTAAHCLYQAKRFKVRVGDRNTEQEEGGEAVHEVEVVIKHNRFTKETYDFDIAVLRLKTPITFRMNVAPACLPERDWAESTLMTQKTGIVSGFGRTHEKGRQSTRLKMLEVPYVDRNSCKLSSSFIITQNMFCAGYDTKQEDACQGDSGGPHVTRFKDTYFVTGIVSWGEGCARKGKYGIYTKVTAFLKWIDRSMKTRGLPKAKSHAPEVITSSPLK
T1 sequence (P00742 41-179 partner limits assumed): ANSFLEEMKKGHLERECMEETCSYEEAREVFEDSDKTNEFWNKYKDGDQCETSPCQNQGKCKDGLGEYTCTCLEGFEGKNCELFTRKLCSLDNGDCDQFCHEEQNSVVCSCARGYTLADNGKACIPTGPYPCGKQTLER
Protocol: The compounds listed in the Experimental Section were investigated for their effect on the inhibition of factor Xa as follows:
Enzyme-kinetic measurement with chromogenic substrate. The quantity of p-nitroaniline (pNA) released from the colourless chromogenic substrate by human factor Xa is determined photometrically at 405 nm. It is proportional to the activity of the enzyme used. The inhibition of the enzyme activity by the test substance (in relation to the solvent control) is determined at various concentrations of test substance and from this the IC50 is calculated, as the concentration which inhibits the factor Xa used by 50%.
Tris(hydroxymethyl)-aminomethane buffer (100 mMol) and sodium chloride (150 mMol), pH 8.0 plus 1 mg/ml Human Albumin Fraction V, protease-free Factor Xa (Calbiochem), spec. activity: 217 IU/mg, final concentration: 7 IU/ml for each reaction mixture Substrate S 2765 (Chromogenix), final concentration: 0.3 mM/l (1 KM) for each reaction mixture Test substance: final concentration 100, 30, 10, 3, 1, 0.3, 0.1, 0.03, 0.01, 0.003, 0.001 μMol/l
10 μl of a 23.5-times concentrated starting solution of the test substance or solvent (control), 175 μl of TRIS/HSA buffer and 25 μl of a 65.8 U/L Factor Xa working solution are incubated for 10 minutes at 37° C. After the addition of 25 μl of S 2765 working solution (2.82 mMol/l) the sample is measured in a photometer (SpectraMax 250) at 405 nm for 600 seconds at 37° C.
1. Determining the maximum increase (deltaOD/minutes) over 21 measuring points. 2. Determining the % inhibition based on the solvent control. 3. Plotting a dosage/activity curve (% inhibition vs substance concentration). 4. Determining the IC50 by interpolating the X-value (substance concentration) of the dosage/activity curve at Y=50% inhibition.

[2] = Solubility in different aqueous media; type: physicochemical; settings: for solubility: aqueous medium

dissolution rate in words ([1]; pH 7.4): acceptable dissolution rates
dissolution rate ([1]; pH of aqueous medium 1.1): 8220 μg/cm^2/min
dissolution rate ([1]; pH of aqueous medium 2.3): 4520 μg/cm^2/min
dissolution rate ([1]; pH of aqueous medium 3.2): 4000 μg/cm^2/min
dissolution rate ([1]; pH of aqueous medium 4.1): 3110 μg/cm^2/min
dissolution rate ([1]; pH of aqueous medium 5.1): 4015 μg/cm^2/min
dissolution rate ([1]; pH of aqueous medium 6.0): 4140 μg/cm^2/min
dissolution rate ([1]; pH of aqueous medium 7.4): 240 μg/cm^2/min
dissolution rate in words ([1]; up to pH 6.0): very fast dissolution rates
IC50 at an approximately x-fold lower plasma concentration compared to the (R)-enantiomer / corresponding (3R)-diastereoisomer (human factor Xa): approximately 8 fold
solubility ([2]; aqueous buffer, medium: 0.01 N NaOH): 46 µg/mL (≈ 0.106 mM)
solubility ([2]; aqueous buffer, medium: pH 2.2): > 10000 µg/mL
solubility ([2]; aqueous buffer, medium: pH 4.0): > 10000 µg/mL
solubility ([2]; aqueous buffer, medium: pH 6.0): > 10000 µg/mL
solubility ([2]; aqueous buffer, medium: pH 7.4): 1800 µg/mL (≈ 4.15 mM)
solubility ([2]; simulated gastric fluid, medium: 0.1 N HCl): > 10000 µg/mL
solubility ([2]; medium: water): 280 µg/mL (≈ 0.645 mM)
pH of the saturated solution ([2]; medium: 0.01 N NaOH): 11.8
pH of the saturated solution ([2]; medium: 0.1 N HCl): 1.0
pH of the saturated solution ([2]; medium: pH 2.2): 2.4
pH of the saturated solution ([2]; medium: pH 4.0): 4.3
pH of the saturated solution ([2]; medium: pH 6.0): 6.3
pH of the saturated solution ([2]; medium: pH 7.4): 7.5
pH of the saturated solution ([2]; medium: water): 8.6
solubility in words ([2]; neutral and basic media): reduced solubility
SMILES: CN1CCc2ccc(NC(=O)[C@]3(NC(=O)c4ccc(Cl)s4)CCOC3)cc2CC1 [(S)-3-[(5-chloro-thiophen-2-yl)-carbonylamino]-N-(3-methyl-2,3,4,5-tetrahydro-1H-benzo[d]azepin-7-yl)-tetrahydrofuran-3-carboxylic acid amide]
solubility in words ([2]; acidic media): excellent solubility; also recorded: high solubility

IC50 at an approximately x-fold lower plasma concentration compared to the (R)-enantiomer / corresponding (3R)-diastereoisomer (human factor Xa): approximately 15 fold
SMILES: N#C/N=C1\CCOCCN1c1ccc(NC(=O)[C@]2(NC(=O)c3ccc(Cl)s3)CCOC2)cc1 [(S)-5-chloro-thiophene-2-carboxylic acid-N-{3-[4-(5-cyanimin-[1.4]oxazepan-4-yl)-phenylcarbamoyl]-tetrahydrofuran-3-yl}-amide]

IC50 at an approximately x-fold lower plasma concentration compared to the (R)-enantiomer / corresponding (3R)-diastereoisomer (human factor Xa): approximately 17 fold
SMILES: Cc1cc(NC(=O)[C@]2(NC(=O)c3ccc(Cl)s3)CCOC2)ccc1N1CCOCC/C1=N\C#N [(S)-5-chloro-thiophene-2-carboxylic acid-N-{3-[3-methyl-4-(5-cyanimin-[1.4]oxazepan-4-yl)-phenylcarbamoyl]-tetrahydrofuran-3-yl}-amide]

IC50 at an approximately x-fold lower plasma concentration compared to the (R)-enantiomer / corresponding (3R)-diastereoisomer (human factor Xa): approximately 9 fold
SMILES: CN1CCc2ccc(NC(=O)[C@]3(NC(=O)c4ccc(Br)s4)CCOC3)cc2CC1 [(S)-3-[(5-bromo-thiophen-2-yl)-carbonylamino]-N-(3-methyl-2,3,4,5-tetrahydro-1H-benzo[d]azepin-7-yl)-tetrahydrofuran-3-carboxylic acid amide]

IC50 at an approximately x-fold lower plasma concentration compared to the (R)-enantiomer / corresponding (3R)-diastereoisomer (human factor Xa): approximately 7 fold
SMILES: C[C@@H]1CN(C)CCc2ccc(NC(=O)[C@]3(NC(=O)c4ccc(Cl)s4)CCOC3)cc21 [(3S)-3-[(5-chloro-thiophen-2-yl)-carbonylamino]-N-((5S)-3,5-dimethyl-2,3,4,5-tetrahydro-1H-benzo[d]azepin-7-yl)-tetrahydrofuran-3-carboxylic acid amide]

IC50 at an approximately x-fold lower plasma concentration compared to the (R)-enantiomer / corresponding (3R)-diastereoisomer (human factor Xa): approximately 10 fold
SMILES: C[C@H]1CN(C)CCc2ccc(NC(=O)[C@]3(NC(=O)c4ccc(Cl)s4)CCOC3)cc21 [(3S)-3-[(5-chloro-thiophen-2-yl)-carbonylamino]-N-((5R)-3,5-dimethyl-2,3,4,5-tetrahydro-1H-benzo[d]azepin-7-yl)-tetrahydrofuran-3-carboxylic acid amide]

IC50 at an approximately x-fold lower plasma concentration compared to the (R)-enantiomer / corresponding (3R)-diastereoisomer (human factor Xa): approximately 16 fold
SMILES: Cc1cc(NC(=O)[C@]2(NC(=O)c3ccc(Br)s3)CCOC2)ccc1N1CCOCCC1=O [(S)-5-bromo-thiophene-2-carboxylic acid-N-{3-[3-methyl-4-(5-oxo-[1,4]oxazepan-4-yl)-phenylcarbamoyl]-tetrahydrofuran-3-yl}-amide]

Source: US20100317848A1, “PROCESS FOR THE SYNTHESIS OF DERIVATIVES OF 3-AMINO-TETRAHYDROFURAN-3-CARBOXYLIC ACID AND USE THEREOF AS MEDICAMENTS” (BOEHRINGER INGELHEIM INTERNATIONAL GMBH, priority 2006, published 2010)
